Activity calls are given as the source filed them. The calls are words filed in the database; no cut-off is given here.
Columns and labels:
Retinal dehydrogenase 2 = target: T1, Retinal dehydrogenase 2 (Homo sapiens, UniProt O94788); experiment: Inhibition of recombinant human ALDH1A2 using propionaldehyde as substrate preincubated for 2 mins with NAD+ followed by substrate addition by UV-Vis spectrophotometric analysis
T1 sequence (O94788 whole entry): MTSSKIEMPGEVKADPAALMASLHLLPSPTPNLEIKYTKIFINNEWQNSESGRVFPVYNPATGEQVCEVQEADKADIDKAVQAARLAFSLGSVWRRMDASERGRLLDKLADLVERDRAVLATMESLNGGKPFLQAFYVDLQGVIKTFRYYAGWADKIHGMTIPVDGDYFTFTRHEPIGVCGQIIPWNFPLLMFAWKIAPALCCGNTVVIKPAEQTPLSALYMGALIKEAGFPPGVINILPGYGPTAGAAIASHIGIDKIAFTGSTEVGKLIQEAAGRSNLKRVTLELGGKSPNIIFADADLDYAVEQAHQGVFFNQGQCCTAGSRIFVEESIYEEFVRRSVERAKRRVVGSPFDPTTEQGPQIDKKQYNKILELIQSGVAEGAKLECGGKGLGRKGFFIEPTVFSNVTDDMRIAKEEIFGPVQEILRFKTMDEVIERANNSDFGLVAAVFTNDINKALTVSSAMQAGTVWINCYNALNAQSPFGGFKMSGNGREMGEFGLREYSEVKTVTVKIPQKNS

[1] = target: T2, Aldehyde dehydrogenase X, mitochondrial (Homo sapiens, UniProt P30837); experiment: Inhibition of recombinant human ALDH1B1 using propionaldehyde as substrate preincubated for 2 mins with NAD+ followed by substrate addition by UV-Vis spectrophotometric analysis
T2 sequence (P30837 whole entry): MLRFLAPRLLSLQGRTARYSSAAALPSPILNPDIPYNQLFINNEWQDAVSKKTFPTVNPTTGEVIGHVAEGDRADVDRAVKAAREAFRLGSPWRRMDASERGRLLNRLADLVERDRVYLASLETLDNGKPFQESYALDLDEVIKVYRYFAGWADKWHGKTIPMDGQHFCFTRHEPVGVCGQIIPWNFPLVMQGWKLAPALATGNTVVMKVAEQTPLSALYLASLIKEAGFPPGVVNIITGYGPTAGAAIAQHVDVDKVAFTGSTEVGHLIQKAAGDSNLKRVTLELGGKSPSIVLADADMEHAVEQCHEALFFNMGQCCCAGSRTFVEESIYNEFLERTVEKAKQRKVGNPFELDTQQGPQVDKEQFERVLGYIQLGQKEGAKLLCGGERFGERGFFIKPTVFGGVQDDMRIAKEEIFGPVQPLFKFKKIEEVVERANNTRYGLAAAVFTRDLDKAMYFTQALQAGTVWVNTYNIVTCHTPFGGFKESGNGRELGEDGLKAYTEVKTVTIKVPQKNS

[2] = target: T3, Aldehyde dehydrogenase, mitochondrial (Homo sapiens, UniProt P05091); experiment: Inhibition of recombinant human ALDH2 using propionaldehyde as substrate preincubated for 2 mins with NAD+ followed by substrate addition by UV-Vis spectrophotometric analysis
T3 sequence (P05091 whole entry): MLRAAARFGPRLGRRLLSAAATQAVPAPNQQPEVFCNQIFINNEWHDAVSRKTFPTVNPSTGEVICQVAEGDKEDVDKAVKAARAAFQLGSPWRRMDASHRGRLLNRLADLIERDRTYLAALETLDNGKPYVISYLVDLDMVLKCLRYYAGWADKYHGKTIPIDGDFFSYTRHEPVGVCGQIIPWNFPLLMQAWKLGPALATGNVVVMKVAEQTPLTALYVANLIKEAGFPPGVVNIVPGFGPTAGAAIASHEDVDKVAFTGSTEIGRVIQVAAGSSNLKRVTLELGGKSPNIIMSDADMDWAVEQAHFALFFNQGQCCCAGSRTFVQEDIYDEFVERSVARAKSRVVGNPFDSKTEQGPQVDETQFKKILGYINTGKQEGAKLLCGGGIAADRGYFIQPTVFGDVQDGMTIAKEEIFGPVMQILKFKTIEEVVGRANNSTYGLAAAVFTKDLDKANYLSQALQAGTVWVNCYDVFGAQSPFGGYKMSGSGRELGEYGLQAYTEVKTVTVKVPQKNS

[3] = target: T4, Aldehyde dehydrogenase X, mitochondrial (Homo sapiens) (UniProt P30837); experiment: Inhibition of recombinant human ALDH1B1 using propionaldehyde as substrate at 100 uM preincubated for 2 mins with NAD+ followed by substrate addition by UV-Vis spectrophotometric analysis
T4 sequence (whole entry): T2 sequence (P30837 whole entry)

[4] = target: T5, Retinal dehydrogenase 2 (Homo sapiens) (UniProt O94788); experiment: Activation of recombinant human ALDH1A2 using propionaldehyde as substrate at 100 uM preincubated for 2 mins with NAD+ followed by substrate addition by UV-Vis spectrophotometric analysis
T5 sequence (whole entry): T1 sequence (O94788 whole entry)

[5] = target: T6, Aldehyde dehydrogenase, dimeric NADP-preferring (Homo sapiens) (UniProt P30838); experiment: Activation of recombinant human ALDH3A1 using benzaldehyde as substrate at 100 uM preincubated for 2 mins with NAD+ followed by substrate addition by UV-Vis spectrophotometric analysis
T6 sequence (whole entry): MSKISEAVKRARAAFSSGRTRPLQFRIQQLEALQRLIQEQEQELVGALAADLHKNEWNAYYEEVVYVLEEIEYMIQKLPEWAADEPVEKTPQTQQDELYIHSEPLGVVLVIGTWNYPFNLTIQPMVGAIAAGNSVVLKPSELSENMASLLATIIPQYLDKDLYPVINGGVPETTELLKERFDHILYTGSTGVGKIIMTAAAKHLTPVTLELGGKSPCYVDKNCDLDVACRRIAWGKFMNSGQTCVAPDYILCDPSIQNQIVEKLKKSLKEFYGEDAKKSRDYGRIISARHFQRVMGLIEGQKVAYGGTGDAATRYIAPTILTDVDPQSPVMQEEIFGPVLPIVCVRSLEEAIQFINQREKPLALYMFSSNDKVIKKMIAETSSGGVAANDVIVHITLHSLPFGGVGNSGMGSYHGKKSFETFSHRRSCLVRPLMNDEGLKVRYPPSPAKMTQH

[6] = target: T4, Aldehyde dehydrogenase X, mitochondrial (Homo sapiens); experiment: Activation of recombinant human ALDH1B1 using propionaldehyde as substrate at 100 uM preincubated for 2 mins with NAD+ followed by substrate addition by UV-Vis spectrophotometric analysis

Structure (SMILES) | IC50 (Retinal dehydrogenase 2) [µM] | IC50 [1] [µM] | IC50 [2] [µM] | inhibition [3] | further results
CC(C)CCn1c(CN(C)Cc2ccccc2)nc2c1c(=O)n(C)c(=O)n2C | > 100 | > 100 | > 100 | – | –
CCCCn1c(Oc2ccc(C(=O)OC)cc2)nc2c1c(=O)n(C)c(=O)n2C | > 100 | – | – | inactive | –
Cn1c(=O)c2c(nc(N3CCOCC3)n2Cc2ccccc2F)n(C)c1=O | – | – | – | inactive | Activity [4]: Active
CCCCn1c(CN2CCN(c3cccc(Cl)c3)CC2)nc2c1c(=O)n(C)c(=O)n2C | > 100 | > 100 | > 100 | – | Activity [5]: Active
Cn1c(=O)c2c(nc(SCC(N)=O)n2Cc2ccccc2F)n(C)c1=O | – | – | – | inactive | –
CCCCn1c(CN2CCN(c3ccc(OC)cc3)CC2)nc2c1c(=O)n(C)c(=O)n2C | – | > 100 | – | – | –
Cn1c(=O)c2c(nc(N3CCN(Cc4ccccc4)CC3)n2Cc2cccc(Cl)c2)n(C)c1=O | > 100 | – | – | – | Activity [6]: Active; Activity [5]: Active
Cn1c(=O)c2c(nc(CN3CCC(C(N)=O)CC3)n2CCCc2ccccc2)n(C)c1=O | – | > 100 | > 100 | – | –
CC(C)CCn1c(CN2CCN(C(=O)c3ccco3)CC2)nc2c1c(=O)n(C)c(=O)n2C | – | – | – | – | Activity [6]: Active; Activity [5]: Active; Activity [4]: Active
CCN1CCN(Cc2nc3c(c(=O)n(C)c(=O)n3C)n2CC(=O)c2ccccc2)CC1 | – | – | – | inactive | –
CC(C)CCn1c(CN2CCOCC2)nc2c1c(=O)n(C)c(=O)n2C | – | > 100 | > 100 | – | –

Reference: ChEMBL document CHEMBL3414499, “Characterization of two distinct structural classes of selective aldehyde dehydrogenase 1A1 inhibitors” (J Med Chem, 2015)
